US9340577B2, “HLA binding motifs and peptides and their uses” (priority 1992, dated 2016)
No end group written: not given here.

Columns and labels:
Test in all cases: biochemical
[1] = biological target: A*3002 (Homo sapiens, UniProt P04439, D101N/D140H/D185E/E176R/F33S/G80R/H175R/K168Q/Q94H/R138E/R41S/V100E); format: binding
[2] = biological target: A*2902 (Homo sapiens, UniProt P04439, A270S/D101N/D185E/E176V/E277Q/E87Q/F33T/G231S/H175R/I121M/I218V/I322F/K168Q/L300P/L318F/M331R/P208A/P217A/Q86L/T323A/T345S/V100A/V358M); format: binding
[3] = biological target: HLA-A1 (A*0101) (Homo sapiens, UniProt P04439, A114D/A174V/A182V/D101N/D185E/E176A/E190D/L180R/Q94H/R68K/S129P/T187R/V100A/V91M/W191G); format: binding
[4] = biological target: DR7 (DRB1*0701) (Homo sapiens, UniProt P01903+P01911, A100R/A102G/A103Q/D57E/D86V/E43K/F76Y/K127E/L162R/M171V/P40G/Q125H/Q99D/R33Q/R42Y/R54Q/S133A/S66F/T210M/V115G/Y107V/Y59L/Y89S); format: binding
[5] = biological target: DRB1*1201 (Homo sapiens, UniProt P01903+P01911, A100R/A169T/D57E/D86V/F55L/H45Y/K41T/L162R/M171V/P40S/Q125H/Q178H/Q39Y/Q99D/R42G/S66L/T262R/V114A/V67L/W38E/Y59H/Y61H/Y89S); format: binding
[6] = biological target: DRB1*1501 (Homo sapiens, UniProt P01903+P01911); format: binding
[7] = biological target: DRB1*0901 (Homo sapiens, UniProt P01903+P01911, A100R/A103E/D57H/D86V/F55Y/F60I/F76Y/I96F/K127E/L162R/M171V/P40D/Q125H/Q99R/R33Q/R42F/S133A/S66N/T210M/V115G/W38K/Y107V/Y59G/Y89S); format: binding
[8] = biological target: DRB1*0802 (Homo sapiens, UniProt P01903+P01911, A100R/A103L/A169T/F76Y/H45Y/I96F/K41T/L162R/M171V/P40S/Q125H/Q178H/Q39Y/Q99D/R218S/R42G/S66Y/V115G/W38E); format: binding
[9] = biological target: DRB1*1101 (Homo sapiens, UniProt P01903+P01911, A100R/A169T/A87E/I96F/K41T/L162R/M171V/P40S/Q125H/Q178H/Q39Y/Q99D/R42S/S66Y/T262R/V115G/W38E); conditions: Binding affinity DRB1 *1101
[10] = biological target: DRB1*1302 (Homo sapiens, UniProt P01903+P01911, A100E/A169T/K41T/L162R/M171V/P40S/Q125H/Q178H/Q39Y/Q99D/R42S/S66N/T262R/V115G/W38E/Y61H); format: binding
[11] = biological target: DRB3*0101 (Homo sapiens, UniProt P01903+P79483); format: binding
[12] = biological target: DR4w4 (DRB1*0401) (Homo sapiens, UniProt P01903+P01911, A100K/A169T/F76Y/I96L/K127E/L162R/M171V/N62H/P40V/Q125Y/R42H/S133A/S149N/S66Y/V115G/V209L/W38E); format: binding
[13] = biological target: DRB1*0301 (Homo sapiens, UniProt P01903+P01911, A100K/A102G/A103R/A169T/F55Y/I96L/K41T/L162R/M171V/P40S/Q125H/Q178H/Q39Y/R42S/S66N/T106N/T262R/W38E/Y61H); format: binding
[14] = biological target: DRB1*0405 (Homo sapiens, UniProt P01903+P01911, A100R/A169T/D86S/F76Y/I96L/K127E/L162R/M171V/N62H/P40V/Q125Y/R42H/S133A/S149N/S66Y/V115G/V209L/W38E); format: binding
[15] = biological target: DRB5*0101 (Homo sapiens, UniProt P01903+Q30154); conditions: Binding affinity DRB5 *0101
[16] = biological target: DRB4*0101 (Homo sapiens, UniProt P01903+P13762, G164S); format: binding
[17] = biological target: DR1 (DRB1*0101) (Homo sapiens, UniProt P01903+P01911, A100R/D57E/F55L/F60I/F76Y/I96L/L162R/M171V/P40L/Q125E/R42F/V115G/Y59C); format: binding

Sequence of DRB1*0301 (P01903 26-254 limits assumed, other chains not shown): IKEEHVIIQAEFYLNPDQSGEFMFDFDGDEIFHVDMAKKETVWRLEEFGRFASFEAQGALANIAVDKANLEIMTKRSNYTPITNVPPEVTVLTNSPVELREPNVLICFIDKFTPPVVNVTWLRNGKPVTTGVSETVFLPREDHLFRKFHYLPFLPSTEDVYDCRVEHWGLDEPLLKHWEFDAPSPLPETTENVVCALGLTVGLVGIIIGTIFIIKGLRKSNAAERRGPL
Sequence of DRB1*1101 (P01903 26-254 limits assumed, other chains not shown): as above
Sequence of DRB1*1302 (P01903 26-254 limits assumed, other chains not shown): as above
Sequence of A*3002 (P04439 whole entry, looked up, the tested form may be a part, stated change not applied): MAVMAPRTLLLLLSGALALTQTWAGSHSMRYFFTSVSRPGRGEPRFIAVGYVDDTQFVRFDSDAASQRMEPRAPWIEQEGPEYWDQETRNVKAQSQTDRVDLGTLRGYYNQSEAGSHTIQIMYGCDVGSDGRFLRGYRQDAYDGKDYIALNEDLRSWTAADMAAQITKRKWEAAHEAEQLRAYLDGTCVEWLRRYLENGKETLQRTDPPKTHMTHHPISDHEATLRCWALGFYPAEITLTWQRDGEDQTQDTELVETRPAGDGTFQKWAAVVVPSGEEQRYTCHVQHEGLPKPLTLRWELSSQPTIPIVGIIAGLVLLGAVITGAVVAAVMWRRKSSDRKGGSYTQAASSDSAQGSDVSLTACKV

Sequence	IC50 [1] [nM]	IC50 [2] [nM]	IC50 [3] [nM]	IC50 [4] [nM]	IC50 [5] [nM]	IC50 [6] [nM]	IC50 [7] [nM]	IC50 [8] [nM]	IC50 [9] [nM]	IC50 [10] [nM]	IC50 [11] [nM]	IC50 [12] [nM]	IC50 [13] [nM]	IC50 [14] [nM]	IC50 [15] [nM]	IC50 [16] [nM]	IC50 [17] [nM]
LSQMVQWAY [Peptide 1580.03]	1.8	124	25	–	–	–	–	–	–	–	–	–	–	–	–	–	–
NTDKSLVKY [Peptide 9018.0008]	3010	5430	7.3	–	–	–	–	–	–	–	–	–	–	–	–	–	–
SSNLQGKLY [Peptide 86.0139]	62	15900	3030	–	–	–	–	–	–	–	–	–	–	–	–	–	–
VTFDPIPIHY [Peptide 9015.0153]	380	619	–	–	–	–	–	–	–	–	–	–	–	–	–	–	–
WFSITNWLWY [Peptide 9015.0159]	–	30	–	–	–	–	–	–	–	–	–	–	–	–	–	–	–
DGVSHAQLPARRAEP [Peptide 1543.18]	–	–	–	> 20000	> 20000	> 20000	> 20000	> 20000	> 20000	> 20000	> 20000	> 20000	2480	> 20000	392	1930	–
CIHSTATDLRTLQQM [Peptide 1543.45]	–	–	–	459	4510	15000	19000	493	–	2990	> 20000	14	213	370	2450	159	448
WFDITKWLWY [Peptide 9015.0160]	3390	–	–	–	–	–	–	–	–	–	–	–	–	–	–	–	–
RHLDKKQRFHNIRGR [Peptide 1543.26]	–	–	–	591	> 20000	> 20000	> 20000	7720	–	> 20000	> 20000	6200	5210	1550	5760	> 20000	556
QERPRKLPQLCTELQ [Peptide 1543.22]	–	–	–	> 20000	11700	> 20000	> 20000	> 20000	> 20000	> 20000	> 20000	5120	> 20000	> 20000	> 20000	81	> 20000
QSTQVDIRILQELLM [Peptide 1543.11]	–	–	–	5390	2340	> 20000	> 20000	–	6480	607	> 20000	4560	2710	3990	> 20000	180	544
NSNTKATLLY [Peptide 1580.16]	470	299	–	–	–	–	–	–	–	–	–	–	–	–	–	–	–
WFDITNWLWY [Peptide 9015.0161]	1660	150	986	–	–	–	–	–	–	–	–	–	–	–	–	–	–
LFDQLIHMHY [Peptide 9018.0033]	47	280	4070	–	–	–	–	–	–	–	–	–	–	–	–	–	–
VTRRANGWFY [Peptide 9018.0011]	0.71	905	25	–	–	–	–	–	–	–	–	–	–	–	–	–	–
